Data reported in patent US8367658B2, “Pyrazin-2-yl-pyridin-2-yl-amine and pyrazin-2-yl-pyrimidin-4-yl-amine compounds and their use” (Cancer Research Technology Limited, priority 2007, dated 2013).
Values joined by “and” are separate entries in the source; they are usually repeats but may differ in a detail not shown here. Identical values can stand only once.

Biological target: T1, CHK1 (Homo sapiens, UniProt O14757)
T1 sequence (O14757 1-476): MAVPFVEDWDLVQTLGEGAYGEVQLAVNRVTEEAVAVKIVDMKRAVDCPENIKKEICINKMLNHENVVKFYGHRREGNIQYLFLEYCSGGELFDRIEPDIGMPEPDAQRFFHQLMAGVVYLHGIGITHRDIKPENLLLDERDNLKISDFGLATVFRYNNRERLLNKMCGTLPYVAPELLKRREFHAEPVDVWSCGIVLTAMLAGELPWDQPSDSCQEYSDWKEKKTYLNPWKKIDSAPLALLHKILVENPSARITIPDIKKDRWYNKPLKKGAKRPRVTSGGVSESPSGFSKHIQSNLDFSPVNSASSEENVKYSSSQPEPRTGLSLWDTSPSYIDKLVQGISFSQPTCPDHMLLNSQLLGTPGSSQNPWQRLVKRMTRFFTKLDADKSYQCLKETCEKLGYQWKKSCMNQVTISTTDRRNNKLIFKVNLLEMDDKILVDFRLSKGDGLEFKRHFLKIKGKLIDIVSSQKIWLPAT
Experiment: CHK1 kinase function inhibition assay (DELFIA, phosphorylation of a CDC25C peptide)
Type: biochemical
Conditions: CHK1 1 nM, ATP 30 μM, 30 minutes at room temperature
In short: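 Phosphorylation of a CDC25C peptide detected by DELFIA with a phospho-specific antibody. Kinase reaction ran 30 min at room temperature, was stopped with EDTA buffer, then captured on neutravidin-coated plates for 1 h before time-resolved fluorescence read-out with enhancement solution.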

SMILES | IC50
CCCN1CCC(Nc2cc(Nc3cnc(C#N)cn3)ncc2C(=O)OC)CC1 [Compound Y-077, Methyl 6-(5-cyanopyrazin-2-ylamino)-4-(1-propylpiperidin-4-ylamino)nicotinate] | ≤ 100 nM
COC(=O)c1cnc(Nc2cnc(C#N)cn2)cc1NC(C)C1CCNCC1 (stereo not shown) [Compound Y-022, Methyl 6-(5-cyanopyrazin-2-ylamino)-4-(1-(piperidin-4-yl)ethylamino)nicotinate] | ≤ 100 nM
CN1CCC(Nc2cc(Nc3cnc(C#N)cn3)ncc2-n2cccc2)CC1 [Compound Y-058, 5-(4-(1-Methylpiperidin-4-ylamino)-5-(1H-pyrrol-1-yl)pyridin-2-ylamino)pyrazine-2-carbonitrile] | ≤ 100 nM
CN1CCC(Nc2cc(Nc3cnc(C#N)cn3)ncc2N)CC1 [Compound Y-007, 5-(5-Amino-4-(1-methylpiperidin-4-ylamino)pyridin-2-ylamino)pyrazine-2-carbonitrile] | ≤ 100 nM
N#Cc1cnc(Nc2cc(NCC3CCCNC3)c(NC(=O)CCN3CCOCC3)cn2)cn1 (stereo not shown) [Compound Y-055, N-(6-(5-Cyanopyrazin-2-ylamino)-4-(piperidin-3-ylmethylamino)pyridin-3-yl)-3-morpholinopropanamide] | 100 to 1000 nM
N#Cc1cnc(Nc2cc(NCC3CCCNC3)c(N3CCCC3)cn2)cn1 (stereo not shown) [Compound Y-059, 5-(4-(Piperidin-3-ylmethylamino)-5-(pyrrolidin-1-yl)pyridin-2-ylamino)pyrazine-2-carbonitrile] | ≤ 100 nM
N#Cc1cnc(Nc2cc(NCC3CCCNC3)c(N3CCC(O)C3)cn2)cn1 (stereo in doubt) [Compound Y-061, 5-(5-(3-Hydroxypyrrolidin-1-yl)-4-((R)-piperidin-3-ylmethylamino)pyridin-2-ylamino) pyrazine-2-carbonitrile] | ≤ 100 nM
CCCN1C2CCC1CC(Nc1cc(Nc3cnc(C#N)cn3)ncc1C(=O)OC)C2 (stereo not shown) [Compound Y-079, Methyl 6-(5-cyanopyrazin-2-ylamino)-4-(8-propyl-8-azabicyclo[3.2.1]octan-3-ylamino)nicotinate] | ≤ 100 nM
CN(C)CC(=O)Nc1cnc(Nc2cnc(C#N)cn2)cc1N[C@H]1CCCNC1 [Compound Y-046, (S)—N-(6-(5-Cyanopyrazin-2-ylamino)-4-(piperidin-3-ylamino)pyridin-3-yl)-2-(dimethylamino)acetamide] | 1000 to 10000 nM
N#Cc1cnc(Nc2cc(N[C@@H]3CCCNC3)c(-n3cccc3)cn2)cn1 [Compound Y-057, (R)-5-(4-(Piperidin-3-ylamino)-5-(1H-pyrrol-1-yl)pyridin-2-ylamino)pyrazine-2-carbonitrile] | 100 to 1000 nM
N#Cc1cnc(Nc2cc(NCC3CCNCC3)c(C(=O)N3CCCC3)cn2)cn1 [Compound Y-087, 5-(4-(Piperidin-4-ylmethylamino)-5-(pyrrolidine-1-carbonyl)pyridin-2-ylamino)pyrazine-2-carbonitrile] | ≤ 100 nM
CN(C)CC(=O)Nc1cnc(Nc2cnc(C#N)cn2)cc1NC1CC2CCC(C1)N2C (stereo not shown) [Compound Y-015, N-(6-(5-Cyanopyrazin-2-ylamino)-4-(8-methyl-8-aza-bicyclo[3.2.1]octan-3-ylamino)pyridin-3-yl)-2-(dimethylamino)acetamide] | 1000 to 10000 nM
CN(C)CC(=O)Nc1cnc(Nc2cnc(C#N)cn2)cc1OCC1CCNCC1 [Compound Y-039, N-(6-(5-Cyanopyrazin-2-ylamino)-4-(piperidin-4-ylmethoxy)pyridin-3-yl)-2-(dimethylamino)acetamide] | 1000 to 10000 nM

Now from value to compound:

IC50 | SMILES
1000 to 10000 nM | NCCCNc1cc(Nc2cnccn2)ncn1 [Compound Z-005, N-(3-Aminopropyl)-A-pyrazin-2-ylpyrimidine-4,6-diamine]
≤ 100 nM | COCc1ccc(-c2cnc(Nc3cnc(C#N)cn3)cc2NC[C@H]2CNCCO2)cc1 [Compound Y-156, (R)-5-(5-(4-(Methoxymethyl)phenyl)-4-(morpholin-2-ylmethylamino)pyridin-2-ylamino)pyrazine-2-carbonitrile]
≤ 100 nM | COc1ccc(-c2cnc(Nc3cnc(C#N)cn3)cc2NC2CCNCC2)cc1 [Compound Y-122, 5-(5-(4-Methoxyphenyl)-4-(piperidin-4-ylamino)pyridin-2-ylamino)pyrazine-2-carbonitrile]
≤ 100 nM | COCCCc1cnc(Nc2cnc(C#N)cn2)cc1NCC1CCNCC1 [Compound Y-141, 5-(5-(3-methoxypropyl)-4-(piperidin-4-ylmethylamino)pyridin-2-ylamino)pyrazine-2-carbonitrile]
≤ 100 nM | COc1ccc(NC(=O)c2cnc(Nc3cnc(C#N)cn3)cc2NCC2CCNCC2)cc1 [Compound Y-095, 6-(5-Cyanopyrazin-2-ylamino)-N-(4-methoxyphenyl)-4-(piperidin-4-ylmethylamino)nicotinamide]
≤ 100 nM | COC/C=C/c1cnc(Nc2cnc(C#N)cn2)cc1NC1CCN(C)CC1 [Compound Y-123, (E)-5-(5-(3-methoxyprop-1-enyl)-4-(1-methylpiperidin-4-ylamino)pyridin-2-ylamino)pyrazine-2-carbonitrile]
1000 to 10000 nM | N#Cc1cnc(Nc2cc(N3CCNCC3)ncn2)cn1 [Compound Z-018, 5-(6-(piperazin-1-yl)pyrimidin-4-ylamino)pyrazine-2-carbonitrile]
100 to 1000 nM | COc1ccccc1NC(=O)c1cnc(Nc2cnc(C#N)cn2)cc1NCC1CCNCC1 [Compound Y-097, 6-(5-Cyanopyrazin-2-ylamino)-N-(2-methoxyphenyl)-4-(piperidin-4-ylmethylamino)nicotinamide]
≤ 100 nM | N#Cc1cnc(Nc2cc(NCC3CCNCC3)c(Cl)cn2)cn1 [Compound Y-124, 5-(5-chloro-4-(piperidin-4-ylmethylamino)pyridin-2-ylamino)pyrazine-2-carbonitrile]
≤ 1000 nM and 100 to 1000 nM | N#Cc1cnc(Nc2cc(NCC3CCCNC3)ncn2)cn1 (stereo not shown) [Compound Z-022, 5-(6-(Piperidin-3-ylmethylamino)pyrimidin-4-ylamino)pyrazine-2-carbonitrile]
≤ 100 nM | COCc1ccc(-c2cnc(Nc3cnc(C#N)cn3)cc2NC2CCN(C)CC2)cc1 [Compound Y-119, 5-(5-(4-(Methoxymethyl)phenyl)-4-(1-methylpiperidin-4-ylamino)pyridin-2-ylamino)pyrazine-2-carbonitrile]
1000 to 10000 nM | CC(Nc1cc(Nc2cnc(C#N)cn2)ncn1)C1CCNCC1 (stereo not shown) [Compound Z-032, 5-(6-(1-(Piperidin-4-yl)ethylamino)pyrimidin-4-ylamino)pyrazine-2-carbonitrile]
≤ 100 nM | N#Cc1cnc(Nc2cc(NCC3CCNCC3)c(-c3ccc(OCCO)cc3)cn2)cn1 [Compound Y-129, 5-(5-(4-(2-hydroxyethoxy)phenyl)-4-(piperidin-4-ylmethylamino)pyridin-2-ylamino)pyrazine-2-carbonitrile]
≤ 100 nM | COCc1cccc(-c2cnc(Nc3cnc(C#N)cn3)cc2NC2CCN(C)CC2)c1 [Compound Y-115, 5-(5-(3-(methoxymethyl)phenyl)-4-(1-methylpiperidin-4-ylamino)pyridin-2-ylamino)pyrazine-2-carbonitrile]
≤ 100 nM | COCC#Cc1cnc(Nc2cnc(C#N)cn2)cc1NC[C@@H]1CNCCO1 [Compound Y-154, (S)-5-(5-(3-Methoxyprop-1-ynyl)-4-(morpholin-2-ylmethylamino)pyridin-2-ylamino)pyrazine-2-carbonitrile]
